Laboratory results from US20100204142A1, “USE OF THE PEPTIDE PHPFHLFVY (RENIN INHIBITOR) AS A THERAPEUTIC AGENT” (priority 2007, published 2010).
Where no end group is shown, it is not given here.

What was measured:
HepG2-2.2.15 cells = experiment: Cytotoxicity in HepG2-2.2.15 cells (dye uptake); format: cell-based; conditions: dye uptake assay, % cell control
Procedure: HepG2-2.2.15 cells were plated in 96-well microtiter plates. After 16-24 hours the confluent monolayer of HepG2-2.2.15 cells was washed and the medium was replaced with complete medium containing test peptide—10 micrograms per ml—in duplicate. Lamivudine (3TC) was used as the positive control, while media alone was added to the cells as a negative control (virus control). Three days later the culture medium was replaced with fresh medium containing the peptide. Six days following the initial administration of the peptide, the cell culture supernatants was collected, treated with pronase and DNAse and then used in a real-time quantitative TaqMan PCR assay. The PCR-amplified HBV DNA was detected in real-time by monitoring increases in fluorescence signals that result from the exonucleolytic degradation of a quenched fluorescence probe molecule that hybridizes to the amplified HBV DNA. For each PCR amplification, a standard curve was simultaneously generated using dilutions of purified HBV DNA. Antiviral activity was calculated from the reduction in HBV DNA levels (% virus control). A novel dye uptake assay was then employed to measure cell viability, which is used to calculate toxicity (% cell control).

[1] = tested on: HIV-1 infected CEM-SS cells (strain HIV-1IIIB); experiment: HIV-1 antiviral assay (CPE reduction, MTS); format: cell-based; conditions: peptide 10 micrograms per ml, 6 days post-infection
CEM-SS cells = experiment: Cytotoxicity in CEM-SS cells (MTS); conditions: CEM-SS cells plus peptide only, peptide 10 micrograms per ml
in vitro = format: cell-based; conditions: human, MRC-5 cells
Procedure: The following day, peptide was added and tested in duplicates.

Pseudomonas aeruginosa = format: cell-based; conditions: 5 micrograms per ml
MRSA = conditions: 5 micrograms per ml
Streptococcus pneumoniae = format: cell-based; conditions: 5 micrograms per ml

Nc1ccn([C@@H]2CS[C@H](CO)O2)c(=O)n1 [3TC, Lamivudine, reference compound]
% Cell viability (HepG2-2.2.15 cells): 95.8%

Cc1cn([C@H]2C[C@H](N=[N+]=[N-])[C@@H](CO)O2)c(=O)[nH]c1=O [AZT]
% CPE reduction in HIV-1 infected CEM-SS cells [1]: 99% | % Cell viability (CEM-SS cells): 97%

PHPFHLFVY-OH [Renin inhibitor]
viability at 144 h (in vitro): 100% | % inhibition (Pseudomonas aeruginosa): 0.0% | % inhibition (MRSA): 0.0% | % inhibition (Streptococcus pneumoniae): 0.0%
